From article PMC5218480 (PLoS ONE, 2017)

Tested on: MV-4-11 cells
Experiment: Gene expression microarray analysis (Affymetrix PrimeView) and GSEA
Assay type: cell-based, human
Set-up: RFU PODN (11730768_x_at) / Fold change /veh PODN (11730768_x_at) / RFU LINC00158 (11744669_a_at) / Fold change /veh LINC00158 (11744669_a_at) / RFU DUSP10 (11751237_a_at) / Fold change /veh DUSP10 (11751237_a_at) / RFU ID3 (11757404_x_at) / Fold change /veh ID3 (11757404_x_at) / RFU PLEKHG5 (11737974_s_at) / Fold change /veh PLEKHG5 (11737974_s_at) / RFU LRRC4B (11730491_at) / Fold change /veh LRRC4B (11730491_at) / RFU GIMAP4 (11747438_a_at) / Fold change /veh GIMAP4 (11747438_a_at) / RFU KRT8 (11758183_x_at) / Fold change /veh KRT8 (11758183_x_at) / RFU CNN1 (11734310_a_at) / Fold change /veh CNN1 (11734310_a_at) / RFU VPS37D (11726825_at) / Fold change /veh VPS37D (11726825_at) / RFU C10orf10 (11716522_x_at) / Fold change /veh C10orf10 (11716522_x_at) / RFU KIR2DL2 /// KIR2DL4 /// KIR2DL5A /// KIR2DL5B /// KIR2DS1 /// KIR2DS2 /// KIR2DS3 /// KIR2DS4 /// KIR3DL3 /// KIR3DL3 /// KIR3DS1 (11738374_at) / Fold change /veh KIR2DL2 /// KIR2DL4 /// KIR2DL5A /// KIR2DL5B /// KIR2DS1 /// KIR2DS2 /// KIR2DS3 /// KIR2DS4 /// KIR3DL3 /// KIR3DL3 /// KIR3DS1 (11738374_at) / RFU C1QL1 (11718748_at) / Fold change /veh C1QL1 (11718748_at) / RFU TMPRSS4 (11747572_a_at) / Fold change /veh TMPRSS4 (11747572_a_at) / RFU HAMP (11756126_x_at) / Fold change /veh HAMP (11756126_x_at) / RFU RNFT2 (11725882_a_at) / Fold change /veh RNFT2 (11725882_a_at) / RFU NR4A2 (11747474_a_at) / Fold change /veh NR4A2 (11747474_a_at) / RFU ABCC12 (11746883_a_at) / Fold change /veh ABCC12 (11746883_a_at) / RFU TMEM136 (11760407_x_at) / Fold change /veh TMEM136 (11760407_x_at) / RFU CLDN22 /// WWC2 (11732394_at) / Fold change /veh CLDN22 /// WWC2 (11732394_at) / RFU HLA-DPB1 (11760878_x_at) / Fold change /veh HLA-DPB1 (11760878_x_at) / RFU SPINT1 (11716480_a_at) / Fold change /veh SPINT1 (11716480_a_at) / RFU GAP43 (11754022_s_at) / Fold change /veh GAP43 (11754022_s_at) / RFU A4GNT (11735810_at) / Fold change /veh A4GNT (11735810_at) / RFU PRB3 (11715151_x_at) / Fold change /veh PRB3 (11715151_x_at) / RFU TUBB4B (11761932_at) / Fold change /veh TUBB4B (11761932_at) / RFU CAPN14 (11732068_a_at) / Fold change /veh CAPN14 (11732068_a_at) / RFU TMCC2 (11721928_a_at) / Fold change /veh TMCC2 (11721928_a_at) / RFU IRGQ (11745062_a_at) / Fold change /veh IRGQ (11745062_a_at) / RFU FAM174B (11720279_a_at) / Fold change /veh FAM174B (11720279_a_at) / RFU TMPRSS4 (11748680_a_at) / Fold change /veh TMPRSS4 (11748680_a_at) / RFU FAM212B (11763350_a_at) / Fold change /veh FAM212B (11763350_a_at) / RFU PLEKHG5 (11743358_a_at) / Fold change /veh PLEKHG5 (11743358_a_at) / RFU ZSCAN30 (11745921_a_at) / Fold change /veh ZSCAN30 (11745921_a_at) / RFU CMKLR1 (11741424_a_at) / Fold change /veh CMKLR1 (11741424_a_at) / RFU LOC101060620 /// MAPK8IP1 (11723275_at) / Fold change /veh LOC101060620 /// MAPK8IP1 (11723275_at) / RFU SPTSSB (11747773_x_at) / Fold change /veh SPTSSB (11747773_x_at) / RFU PRSS12 (11739890_at) / Fold change /veh PRSS12 (11739890_at) / RFU BIN1 (11741810_x_at) / Fold change /veh BIN1 (11741810_x_at) / RFU WNT11 (11732464_a_at) / Fold change /veh WNT11 (11732464_a_at) / RFU C10orf10 (11716521_a_at) / Fold change /veh C10orf10 (11716521_a_at) / RFU C5orf56 (11738089_at) / Fold change /veh C5orf56 (11738089_at) / RFU CYB561 (11721691_x_at) / Fold change /veh CYB561 (11721691_x_at) / RFU ANKRD19P (11752326_a_at) / Fold change /veh ANKRD19P (11752326_a_at) / RFU OR2T12 /// OR2T33 /// OR2T8 (11738714_s_at) / Fold change /veh OR2T12 /// OR2T33 /// OR2T8 (11738714_s_at) / RFU VCAN (11748164_a_at) / Fold change /veh VCAN (11748164_a_at) / RFU JSRP1 (11732532_at) / Fold change /veh JSRP1 (11732532_at) / RFU KRTAP10-11 (11738290_x_at) / Fold change /veh KRTAP10-11 (11738290_x_at) / RFU MYO3A (11730013_a_at) / Fold change /veh MYO3A (11730013_a_at) / RFU EBF3 (11725865_a_at) / Fold change /veh EBF3 (11725865_a_at) / RFU CAMK2N1 (11719241_x_at) / Fold change /veh CAMK2N1 (11719241_x_at) / RFU C5orf56 (11738088_a_at) / Fold change /veh C5orf56 (11738088_a_at) / RFU OLFML3 (11715873_a_at) / Fold change /veh OLFML3 (11715873_a_at) / RFU LOC100653217 /// NTM (11731650_a_at) / Fold change /veh LOC100653217 /// NTM (11731650_a_at) / RFU MAPK11 (11762145_a_at) / Fold change /veh MAPK11 (11762145_a_at) / RFU FIZ1 (11724087_x_at) / Fold change /veh FIZ1 (11724087_x_at) / RFU OASL (11726364_x_at) / Fold change /veh OASL (11726364_x_at) / RFU SOX15 (11748057_x_at) / Fold change /veh SOX15 (11748057_x_at) / RFU CD79A (11719716_a_at) / Fold change /veh CD79A (11719716_a_at) / RFU HIST1H1D (11736915_at) / Fold change /veh HIST1H1D (11736915_at) / RFU CASKIN2 (11723855_a_at) / Fold change /veh CASKIN2 (11723855_a_at) / RFU LOC730098 (11760151_x_at) / Fold change /veh LOC730098 (11760151_x_at) / RFU OR4N2 (11742367_at) / Fold change /veh OR4N2 (11742367_at) / RFU PRRT2 (11749266_a_at) / Fold change /veh PRRT2 (11749266_a_at) / RFU SNX32 (11753110_a_at) / Fold change /veh SNX32 (11753110_a_at) / RFU CDHR5 (11726645_a_at) / Fold change /veh CDHR5 (11726645_a_at) / RFU RCAN1 (11760418_a_at) / Fold change /veh RCAN1 (11760418_a_at) / RFU FAM167A (11723789_a_at) / Fold change /veh FAM167A (11723789_a_at) / RFU FAM26E (11764081_at) / Fold change /veh FAM26E (11764081_at) / RFU ISYNA1 (11749810_s_at) / Fold change /veh ISYNA1 (11749810_s_at) / RFU ACY1 (11761880_at) / Fold change /veh ACY1 (11761880_at) / RFU 11764098_at / Fold change /veh 11764098_at / RFU SAMD14 (11745864_x_at) / Fold change /veh SAMD14 (11745864_x_at) / RFU NPB (11741838_a_at) / Fold change /veh NPB (11741838_a_at) / RFU TMPRSS6 (11731388_a_at) / Fold change /veh TMPRSS6 (11731388_a_at) / RFU KRTAP10-2 (11738614_at) / Fold change /veh KRTAP10-2 (11738614_at) / RFU ARHGAP8 /// PRR5-ARHGAP8 (11727945_x_at) / Fold change /veh ARHGAP8 /// PRR5-ARHGAP8 (11727945_x_at) / RFU KRTAP5-7 /// NADSYN1 (11734609_at) / Fold change /veh KRTAP5-7 /// NADSYN1 (11734609_at) / RFU RASL12 (11751679_a_at) / Fold change /veh RASL12 (11751679_a_at) / RFU CDKN2B (11736163_a_at) / Fold change /veh CDKN2B (11736163_a_at) / RFU PRF1 (11729649_at) / Fold change /veh PRF1 (11729649_at) / RFU, ZNF638 /// ZNF638-IT1 / Fold change vs veh, ZNF638 /// ZNF638-IT1 / RFU, PANK3 / Fold change vs veh, PANK3 / RFU, SH3YL1 / Fold change vs veh, SH3YL1 / RFU, ZEB2 / Fold change vs veh, ZEB2 / RFU, NRIP1 / Fold change vs veh, NRIP1 / RFU, PTTG1IP / Fold change vs veh, PTTG1IP / RFU, CAPN2 / Fold change vs veh, CAPN2 / RFU, MED14 / Fold change vs veh, MED14 / RFU, SNORA58 / Fold change vs veh, SNORA58 / RFU, C1orf63 / Fold change vs veh, C1orf63 / RFU, LRRFIP1 / Fold change vs veh, LRRFIP1 / RFU, NDUFAF7 / Fold change vs veh, NDUFAF7 / RFU, SLC12A2 / Fold change vs veh, SLC12A2 / RFU, IBTK / Fold change vs veh, IBTK / RFU, ESF1 / Fold change vs veh, ESF1 / Fold change vs veh, TMEM50B / RFU, TAOK1 / Fold change vs veh, TAOK1 / RFU, ACBD3 / Fold change vs veh, ACBD3 / RFU, TMA16 / Fold change vs veh, TMA16 / RFU, RWDD3 / Fold change vs veh, RWDD3 / RFU, BCAT1 / Fold change vs veh, BCAT1 / RFU, EDEM3 / Fold change vs veh, EDEM3 / RFU, TMEM33 / Fold change vs veh, TMEM33 / RFU, WDR75 / Fold change vs veh, WDR75 / RFU, AHCTF1 / Fold change vs veh, AHCTF1 / RFU, TFRC / Fold change vs veh, TFRC / RFU, ZDHHC17 / Fold change vs veh, ZDHHC17 / RFU, NOM1 / Fold change vs veh, NOM1 / RFU, ARL8B / Fold change vs veh, ARL8B / RFU, ZBTB11 / Fold change vs veh, ZBTB11 / RFU, TAMM41 / Fold change vs veh, TAMM41 / RFU, KIAA1704 /// LOC100996395 / Fold change vs veh, KIAA1704 /// LOC100996395 / RFU, ING1 / Fold change vs veh, ING1 / RFU, TRMT61B / Fold change vs veh, TRMT61B / RFU, FUBP3 / Fold change vs veh, FUBP3 / RFU, TP53 / Fold change vs veh, TP53 / RFU, TNKS2 / Fold change vs veh, TNKS2 / RFU, ZFP14 / Fold change vs veh, ZFP14 / RFU, ACTR2 / Fold change vs veh, ACTR2 / RFU, PPP3R1 / Fold change vs veh, PPP3R1 / RFU, PIK3R1 / Fold change vs veh, PIK3R1 / RFU, HNRNPA1 / Fold change vs veh, HNRNPA1 / RFU, RNF170 / Fold change vs veh, RNF170 / RFU, ZNF28 / Fold change vs veh, ZNF28 / RFU, RNGTT / Fold change vs veh, RNGTT / RFU, OGT / Fold change vs veh, OGT / RFU, BRD1 / Fold change vs veh, BRD1 / RFU, MARS / Fold change vs veh, MARS / RFU, ZNF655 / Fold change vs veh, ZNF655 / RFU, FAHD1 / Fold change vs veh, FAHD1 / RFU, BDP1 / Fold change vs veh, BDP1 / RFU, LRRCC1 / Fold change vs veh, LRRCC1 / RFU, ARID1A / Fold change vs veh, ARID1A / RFU, ZNF146 / Fold change vs veh, ZNF146 / RFU, ZNF330 / Fold change vs veh, ZNF330 / RFU, GPN3 / Fold change vs veh, GPN3 / RFU, C9orf123 / Fold change vs veh, C9orf123 / RFU, N4BP2L2 / Fold change vs veh, N4BP2L2 / RFU, ARFIP1 / Fold change vs veh, ARFIP1 / RFU, FAM179B / Fold change vs veh, FAM179B / RFU, BCL10 / Fold change vs veh, BCL10 / RFU, UHRF1BP1L / Fold change vs veh, UHRF1BP1L / RFU, BET1 / Fold change vs veh, BET1 / RFU, CNOT2 / Fold change vs veh, CNOT2 / RFU, ZNF268 / Fold change vs veh, ZNF268 / Fold change vs veh, ZNF507 / RFU, DGCR2 / Fold change vs veh, DGCR2 / RFU, WDSUB1 / Fold change vs veh, WDSUB1 / Fold change vs veh, HSP90B1 /// MIR3652 / RFU, ADSS / Fold change vs veh, ADSS / RFU, GK / Fold change vs veh, GK / RFU, ZNF148 / Fold change vs veh, ZNF148 / RFU, TAF9 / Fold change vs veh, TAF9 / RFU, SLC1A5 / Fold change vs veh, SLC1A5 / RFU, SLMO2 / Fold change vs veh, SLMO2 / RFU, ABCC4 / Fold change vs veh, ABCC4 / RFU, LOC101060439 /// RAP1B / Fold change vs veh, LOC101060439 /// RAP1B / RFU, RFX7 / Fold change vs veh, RFX7 / RFU, GTPBP10 / Fold change vs veh, GTPBP10 / RFU, CNEP1R1 / Fold change vs veh, CNEP1R1 / RFU, BIVM-ERCC5 /// ERCC5 / Fold change vs veh, BIVM-ERCC5 /// ERCC5 / RFU, ILF3 / Fold change vs veh, ILF3 / RFU 11762660_at / Fold change /veh 11762660_at / RFU VCAN (11757783_s_at) / Fold change /veh VCAN (11757783_s_at) / RFU DDX43 (11728927_at) / Fold change /veh DDX43 (11728927_at) / RFU KRT8 (11758188_x_at) / Fold change /veh KRT8 (11758188_x_at) / RFU NKD1 (11759106_at) / Fold change /veh NKD1 (11759106_at) / RFU SRD5A1 (11742802_a_at) / Fold change /veh SRD5A1 (11742802_a_at) / RFU TPSAB1 /// TPSB2 (11721975_s_at) / Fold change /veh TPSAB1 /// TPSB2 (11721975_s_at) / RFU GSTM3 (11746129_a_at) / Fold change /veh GSTM3 (11746129_a_at) / RFU IL23R (11737362_x_at) / Fold change /veh IL23R (11737362_x_at) / RFU TMEM51 (11727254_a_at) / Fold change /veh TMEM51 (11727254_a_at) / RFU PIWIL2 (11732686_x_at) / Fold change /veh PIWIL2 (11732686_x_at) / RFU ORM1 (11744905_x_at) / Fold change /veh ORM1 (11744905_x_at) / RFU CCDC152 (11743942_at) / Fold change /veh CCDC152 (11743942_at) / RFU ECM1 (11717891_a_at) / Fold change /veh ECM1 (11717891_a_at) / RFU IL23R (11748794_a_at) / Fold change /veh IL23R (11748794_a_at) / RFU TNFAIP8L3 (11732012_x_at) / Fold change /veh TNFAIP8L3 (11732012_x_at) / RFU MBOAT4 (11741988_at) / Fold change /veh MBOAT4 (11741988_at) / RFU 11764193_at / Fold change /veh 11764193_at / RFU TMEM53 (11763286_at) / Fold change /veh TMEM53 (11763286_at) / RFU MAGEB2 (11727129_at) / Fold change /veh MAGEB2 (11727129_at) / RFU TMEM200A (11744735_a_at) / Fold change /veh TMEM200A (11744735_a_at) / RFU CCDC152 (11751479_a_at) / Fold change /veh CCDC152 (11751479_a_at) / RFU FAM211A (11726209_a_at) / Fold change /veh FAM211A (11726209_a_at) / RFU RGS16 (11746705_a_at) / Fold change /veh RGS16 (11746705_a_at) / RFU VCAN (11755009_s_at) / Fold change /veh VCAN (11755009_s_at) / RFU RHOB (11743442_s_at) / Fold change /veh RHOB (11743442_s_at) / RFU RGS16 (11720943_a_at) / Fold change /veh RGS16 (11720943_a_at) / RFU RGS16 (11720944_at) / Fold change /veh RGS16 (11720944_at) / RFU, VPS4B / Fold change vs veh, VPS4B / RFU, CREB1 / Fold change vs veh, CREB1 / RFU, DNAJC13 / Fold change vs veh, DNAJC13 / RFU, GNAQ / Fold change vs veh, GNAQ / RFU, CDK5R1 / Fold change vs veh, CDK5R1 / RFU, ZRANB3 / Fold change vs veh, ZRANB3 / RFU, CUL4A / Fold change vs veh, CUL4A / RFU, CCNY / Fold change vs veh, CCNY / RFU, UFL1 / Fold change vs veh, UFL1 / RFU, COG3 / Fold change vs veh, COG3 / RFU, DIAPH2 / Fold change vs veh, DIAPH2 / RFU, SKA2 / Fold change vs veh, SKA2 / RFU, AFF3 / Fold change vs veh, AFF3 / RFU, LMF1 / Fold change vs veh, LMF1 / RFU, IPO11 / Fold change vs veh, IPO11 / RFU, DFFB / Fold change vs veh, DFFB / RFU, FOXP1 / Fold change vs veh, FOXP1 / RFU, CARD8 / Fold change vs veh, CARD8 / RFU, STRN3 / Fold change vs veh, STRN3 / RFU, ADK / Fold change vs veh, ADK / RFU, RASSF2 / Fold change vs veh, RASSF2 / RFU, WIPF1 / Fold change vs veh, WIPF1 / RFU, LARP1B / Fold change vs veh, LARP1B / RFU, RASA1 / Fold change vs veh, RASA1 / RFU, RB1 / Fold change vs veh, RB1 / RFU, PPFIA1 / Fold change vs veh, PPFIA1 / RFU, MAT2A / Fold change vs veh, MAT2A / RFU, CCT5 / Fold change vs veh, CCT5 / RFU, WDR92 / Fold change vs veh, WDR92 / RFU, CUX1 / Fold change vs veh, CUX1 / RFU, TTC7A / Fold change vs veh, TTC7A / RFU, TMEM135 / Fold change vs veh, TMEM135 / RFU, DEPTOR / Fold change vs veh, DEPTOR / RFU, CPM / Fold change vs veh, CPM / RFU, DNAJB6 / Fold change vs veh, DNAJB6 / RFU, CACNA2D3 / Fold change vs veh, CACNA2D3 / RFU, DTX4 / Fold change vs veh, DTX4 / RFU, TFCP2 / Fold change vs veh, TFCP2 / RFU, GMCL1 /// GMCL1P1 / Fold change vs veh, GMCL1 /// GMCL1P1 / RFU, AEBP2 / Fold change vs veh, AEBP2 / RFU, SNHG1 /// SNORD22 /// SNORD25 /// SNORD26 /// SNORD27 /// SNORD28 /// SNORD29 /// SNORD31 / Fold change vs veh, SNHG1 /// SNORD22 /// SNORD25 /// SNORD26 /// SNORD27 /// SNORD28 /// SNORD29 /// SNORD31 / Fold change (Aza/veh), C12orf56 (ProbeSet 11735607_a_at) / Fold change (ACY-1035/veh), C12orf56 (ProbeSet 11735607_a_at) / Fold change (Aza/veh), FGFR1OP (ProbeSet 11751329_s_at) / Fold change (ACY-1035/veh), FGFR1OP (ProbeSet 11751329_s_at) / Fold change (Aza/veh), VPS36 (ProbeSet 11739960_a_at) / Fold change (ACY-1035/veh), VPS36 (ProbeSet 11739960_a_at) / RFU SYPL1 (11715823_x_at) / Fold change /veh SYPL1 (11715823_x_at) / RFU IGFBP7 (11715501_s_at) / Fold change /veh IGFBP7 (11715501_s_at) / RFU REEP3 (11722064_at) / Fold change /veh REEP3 (11722064_at) / RFU IGLL1 (11728026_x_at) / Fold change /veh IGLL1 (11728026_x_at): dose or concentration left out as unconfirmed
Settings: MV-4-11 cells, 48 hours

Nc1ncn([C@@H]2O[C@H](CO)[C@@H](O)[C@H]2O)c(=O)n1 [azacitidine]
Fold change /veh PRRT2 (11749266_a_at): 0.89
